Test systems include HOP-92 NSCLC; KM12 colon; HS 578T breast; 786-0 renal; BT-549 breast; PC-3 prostate; CAKI-1 renal; OVCAR-8 ovarian; SNB-75 CNS; OVCAR-5 ovarian; K-562 leukemia.
Holding throughout (experiment): inhibition of tumour cell growth, NCI panel, 48 h

SMILES strings stand for the structures.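 96-well plates; 48 h exposure; 5 concentrations. Endpoints by linear interpolation between flanking doses. Not reached: highest tested concentration assigned. TGI: total growth inhibition.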

Consider `COC(=O)NC1C(C)OC(OC2C/C=C(/C)C3C=CC4C(OC5CC(OC6CC(OC7CC(O)C(O)C(C)O7)C(OC7CC(O)C(OC)C(C)O7)C(C)O6)C(O)C(C)O5)C(C)CC(C)C4C3(C)/C(O)=C3\C(=O)OC4(CC(C)C(CO)=CC4/C=C\2C)C3=O)CC1(C)[N+](=O)[O-]` (stereo not given), for which the TGI with HOP-92 NSCLC is 32.5 µM; in the experiment with KM12 colon it was 20.5 µM; in the experiment with HS 578T breast it was more than 100 µM; in the experiment on 786-0 renal it was 7.08 µM; with BT-549 breast, 89.5 µM; with PC-3 prostate, more than 100 µM. The TGI with CAKI-1 renal is 41.1 µM; in the experiment with OVCAR-8 ovarian it was 33.4 µM; in the experiment with SNB-75 CNS, 16.7 µM; in the experiment with OVCAR-5 ovarian it was 42.1 µM.
As to `CC1(C=O)CCC23COC4(CCC5C6(C)CCC(OC7OCC(OC8OC(CO)C(O)C(OC9OC(CO)C(O)C(O)C9O)C8OC8OCC(O)C(O)C8O)C(O)C7OC7OC(CO)C(O)C(O)C7O)C(C)(C)C6CCC5(C)C4(C)CC2O)C3C1` (stereo not given), the TGI in the experiment on HOP-92 NSCLC came to 1.53 µM; with KM12 colon it was 1.42 µM; with HS 578T breast it was 2.99 µM; in the experiment on 786-0 renal, 2.43 µM; in the experiment with BT-549 breast, 3.06 µM; in the experiment with PC-3 prostate, 2.67 µM. For the same compound, the TGI with CAKI-1 renal was 2.32 µM; in the experiment with K-562 leukemia, more than 100 µM; with OVCAR-8 ovarian, 1.48 µM; with SNB-75 CNS, 2.51 µM; in the experiment on OVCAR-5 ovarian, 2.55 µM.
As for `COc1cc([N+](=O)[O-])ccc1N1C(=O)C2c3[nH]c4ccccc4c3C3CCC(C(C)(C)C)CC3C2C1=O` (stereo not given), the TGI was more than 100 µM with HOP-92 NSCLC; more than 100 µM in the experiment with KM12 colon; 43.4 µM in the experiment with HS 578T breast; more than 100 µM in the experiment on BT-549 breast; more than 100 µM with PC-3 prostate; 24.9 µM in the experiment with CAKI-1 renal. Besides, the TGI with OVCAR-8 ovarian and with OVCAR-5 ovarian was more than 100 µM throughout.
For `CCOC(=O)Nc1cc2c(c(N)n1)N=C(c1ccc3ccccc3c1)CN2`, the TGI with HOP-92 NSCLC was 6.16 µM; in the experiment on KM12 colon it was 3.94 µM; in the experiment on HS 578T breast it was 3.16 µM; in the experiment on 786-0 renal, 3.81 µM; with BT-549 breast it was more than 57.8 µM; in the experiment with PC-3 prostate, 24.7 µM. The TGI with CAKI-1 renal is 36.9 µM; with K-562 leukemia, 10.3 µM; in the experiment with OVCAR-8 ovarian, 10.8 µM; in the experiment on OVCAR-5 ovarian it was more than 56.8 µM.
With `C[N+](C)(C)CCN[N+]1(C)CCCc2ccccc21` (stereo not given), the TGI with HOP-92 NSCLC, in the experiment with KM12 colon, in the experiment with HS 578T breast, in the experiment on 786-0 renal, with BT-549 breast and in the experiment on PC-3 prostate was more than 100 µM in each case. Further, the TGI in the experiment on CAKI-1 renal, in the experiment with K-562 leukemia, with OVCAR-8 ovarian, in the experiment on SNB-75 CNS and with OVCAR-5 ovarian was more than 100 µM each time.
Take `Cc1c2cc[n+](C)cc2c(C)c2c1oc1ccccc12`: the TGI was 32.7 µM with HOP-92 NSCLC; 11.6 µM with KM12 colon; 4.8 µM with HS 578T breast; 31.8 µM in the experiment on 786-0 renal; 4.39 µM in the experiment on BT-549 breast; 37.8 µM in the experiment with PC-3 prostate. The TGI in the experiment with CAKI-1 renal was 98.3 µM; with K-562 leukemia, 34.9 µM; in the experiment on OVCAR-8 ovarian it was 29.8 µM; in the experiment with SNB-75 CNS, 5.49 µM; in the experiment with OVCAR-5 ovarian, 64 µM.
Take `Oc1ccc(-c2nc3cc(F)ccc3s2)cc1`: the TGI with HOP-92 NSCLC came out at 47.1 µM; in the experiment with KM12 colon, 52.5 µM; in the experiment with 786-0 renal it was 92.6 µM; in the experiment on BT-549 breast, 60.6 µM; with PC-3 prostate, 60 µM; in the experiment on CAKI-1 renal, 43.9 µM. Also, the TGI is 72.3 µM in the experiment on K-562 leukemia, more than 100 µM in the experiment on OVCAR-8 ovarian and 58.4 µM in the experiment with OVCAR-5 ovarian.
As to `O=c1c2cc(S(=O)(=O)O)ccc2nc(COc2ccc(Oc3ccc(Cl)cc3Cl)cc2)n1C(=S)Nc1ccc(Cl)cc1`, the TGI with HOP-92 NSCLC was 43.3 µM; in the experiment with KM12 colon, 71.4 µM; with HS 578T breast, 44.8 µM; in the experiment with 786-0 renal it was 40.4 µM; in the experiment with BT-549 breast it was 45.2 µM; in the experiment on PC-3 prostate, more than 100 µM. Also, the TGI with CAKI-1 renal is more than 100 µM; with K-562 leukemia, 30.8 µM; in the experiment with OVCAR-8 ovarian, 55.3 µM; in the experiment on SNB-75 CNS, 41.5 µM; in the experiment on OVCAR-5 ovarian, 40.7 µM.
In the case of `c1c2c(cc3c1OCO3)-c1cc3ccc4c(c3c[n+]1CC2)OCO4`, the TGI in the experiment with HOP-92 NSCLC was more than 12.5 µM; in the experiment on KM12 colon, more than 5.45 µM; in the experiment on HS 578T breast, more than 12.5 µM; in the experiment with 786-0 renal, more than 10.1 µM; in the experiment with BT-549 breast, more than 12.5 µM; with PC-3 prostate, more than 12.5 µM. The TGI with CAKI-1 renal is more than 12.5 µM; with K-562 leukemia it was more than 12.5 µM; in the experiment with OVCAR-8 ovarian, 4.13 µM; in the experiment on SNB-75 CNS, more than 8.5 µM; in the experiment with OVCAR-5 ovarian, more than 12.5 µM.
As for `NCCNCCNc1ccc(NCCNCCN)c2c1C(=O)c1c(O)ccc(O)c1C2=O`, the TGI in the experiment on HOP-92 NSCLC, in the experiment with KM12 colon, with HS 578T breast, in the experiment on 786-0 renal, in the experiment on BT-549 breast and with PC-3 prostate was more than 100 µM throughout. In addition, the TGI in the experiment with CAKI-1 renal, in the experiment with K-562 leukemia, in the experiment on OVCAR-8 ovarian, in the experiment on SNB-75 CNS and with OVCAR-5 ovarian was more than 100 µM each time.
In the case of `c1ccc([P+](c2ccccc2)(c2ccccc2)c2ccc(-c3ccc([P+](c4ccccc4)(c4ccccc4)c4ccccc4)cc3)cc2)cc1`, the TGI in the experiment on KM12 colon is more than 100 µM; in the experiment with HS 578T breast it was more than 100 µM; in the experiment with 786-0 renal, more than 100 µM; with BT-549 breast it was more than 100 µM; in the experiment on PC-3 prostate it was 73.9 µM; in the experiment on CAKI-1 renal, more than 100 µM. The TGI was more than 100 µM in the experiment with K-562 leukemia, 85.5 µM in the experiment with OVCAR-8 ovarian and more than 100 µM in the experiment on OVCAR-5 ovarian.
`Nc1nc(OCC2CCCCC2)c2[nH]cnc2n1`: the TGI in the experiment with HOP-92 NSCLC is 42.7 µM; in the experiment on KM12 colon, more than 100 µM; in the experiment with HS 578T breast, more than 44.5 µM; with 786-0 renal, more than 88.1 µM; in the experiment with BT-549 breast, more than 72.9 µM; in the experiment on PC-3 prostate it was 41.2 µM. Besides, the TGI with CAKI-1 renal is 58 µM; with K-562 leukemia, more than 100 µM; in the experiment on OVCAR-8 ovarian, more than 100 µM; with SNB-75 CNS, more than 81 µM; in the experiment on OVCAR-5 ovarian, 53.1 µM.
In the case of `CCOP(=O)(OCC)C(Nc1cccc(F)c1)c1ccc(N(C)C)cc1` (stereo not given), the TGI in the experiment on HOP-92 NSCLC, in the experiment with KM12 colon, in the experiment on HS 578T breast, in the experiment on BT-549 breast, in the experiment on PC-3 prostate and with CAKI-1 renal was more than 100 µM in each case. Moreover, the TGI in the experiment on K-562 leukemia, in the experiment with OVCAR-8 ovarian, in the experiment with SNB-75 CNS and in the experiment on OVCAR-5 ovarian was more than 100 µM throughout.
As for `CN(C)c1ccc(/C=c2/c3ccccc3n3c2cc(NC(=O)NCCC[N+](C)(C)C)[n+]3C)cc1`, the TGI in the experiment on HOP-92 NSCLC, in the experiment on KM12 colon, in the experiment on HS 578T breast, in the experiment with 786-0 renal, in the experiment with BT-549 breast and in the experiment on PC-3 prostate was more than 100 µM throughout. For the same compound, the TGI in the experiment with CAKI-1 renal, in the experiment on K-562 leukemia, in the experiment with OVCAR-8 ovarian and in the experiment with OVCAR-5 ovarian was more than 100 µM throughout.
Consider `Cc1ccc([N+](=O)[O-])cc1S(=O)(=O)Nc1ccc(C2=NOC(c3ccccc3O)C2)cc1` (stereo not given), for which the TGI with HOP-92 NSCLC is more than 100 µM; in the experiment with KM12 colon, 38.2 µM; in the experiment on HS 578T breast, more than 100 µM; in the experiment on 786-0 renal it was more than 100 µM; with BT-549 breast, 60.3 µM; in the experiment on PC-3 prostate, more than 100 µM. For the same compound, the TGI in the experiment with CAKI-1 renal is more than 100 µM; with K-562 leukemia it was more than 100 µM; with OVCAR-8 ovarian, more than 100 µM; with SNB-75 CNS it was 55.2 µM; in the experiment on OVCAR-5 ovarian it was more than 100 µM.
In the case of `CO/N=C(\C)c1cccc(Nc2nc3ccccc3c3occc23)c1`, the TGI in the experiment on HOP-92 NSCLC is 20.3 µM; in the experiment with KM12 colon, 24.5 µM; with HS 578T breast, 27.2 µM; with 786-0 renal, 26.7 µM; in the experiment on BT-549 breast, 26.8 µM; in the experiment on PC-3 prostate, 28.2 µM. The TGI in the experiment on CAKI-1 renal amounted to 25.4 µM; in the experiment with K-562 leukemia, 38.2 µM; with OVCAR-8 ovarian it was 33.4 µM; with SNB-75 CNS it was 29.1 µM; in the experiment on OVCAR-5 ovarian, 27.6 µM.

For the origin of these results see PubChem BioAssay (NCI).
